Results published in patent US6689773B2, “Uracil substituted phenyl sulfamoyl carboxamides” (BASF Aktiengesellschaft, priority 2000, dated 2004).

Columns and labels:
Format in all cases: in vivo
[1] = system: XANST, Cocklebur, Xanthium strumariam; assay: Postemergence herbicidal evaluation (Example 147); conditions: rating scale 0-9, two to three weeks after treatment
Method in brief: (§1)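 First, seedlings were raised for about two weeks. Next, they were sprayed at 40 psi with compound (about 0.016 to 0.032 kg/ha) in acetone/water 80/20 containing 1.0% methylated seed oil. Finally, after two to three greenhouse weeks, overall appearance versus control was rated 0-9, averaging repeat tests.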

[2] = system: IPOHE, Morningglory, Ivyleaf, Ipomoea hederacea, (L)Jacq.; assay: Postemergence herbicidal evaluation (Example 147); conditions: rating scale 0-9, two to three weeks after treatment
Method in brief: as §1

[3] = system: AMBEL, Ragweed, Common, Ambrosia artemiisifolia, L.; assay: Postemergence herbicidal evaluation (Example 147); conditions: rating scale 0-9, two to three weeks after treatment
Method in brief: as §1

[4] = system: SETVI, Green foxtail, Setaria viridis, (L.)Beau; assay: Postemergence herbicidal evaluation (Example 147); conditions: rating scale 0-9, two to three weeks after treatment
Method in brief: as §1

[5] = system: ZEAMX, Field corn, Zea mays L.; assay: Postemergence herbicidal evaluation (Example 147); conditions: rating scale 0-9, two to three weeks after treatment
Method in brief: as §1

[6] = system: ABUTH, Velvetleaf, Abutilon theophrasti, Medic.; assay: Postemergence herbicidal evaluation (Example 147); conditions: rating scale 0-9, two to three weeks after treatment
Method in brief: as §1

[7] = system: ECHCG, Barnyardgrass, Echinochloa crusgalli, (L.)Beau; assay: Postemergence herbicidal evaluation (Example 147); conditions: rating scale 0-9, two to three weeks after treatment
Method in brief: as §1

[8] = system: DIGSA, Crabgrass, (Hairy) L, Digitaria sanguinalis, (L)Scop; assay: Postemergence herbicidal evaluation (Example 147); conditions: rating scale 0-9, two to three weeks after treatment
Method in brief: as §1

[9] = system: CHEAL, Lambsquarters, Chenopodium album, L. Common; assay: Postemergence herbicidal evaluation (Example 147); conditions: rating scale 0-9, two to three weeks after treatment
Method in brief: as §1

[10] = system: TRZAW, Winter wheat, Tritium Aestivum, L. (Winter); assay: Postemergence herbicidal evaluation (Example 147); conditions: rating scale 0-9, two to three weeks after treatment
Method in brief: as §1

[11] = system: ALOMY, Blackgrass, Alopecurus myosuroides; assay: Postemergence herbicidal evaluation (Example 147); conditions: rating scale 0-9, two to three weeks after treatment
Method in brief: as §1

[12] = system: GLXMA, Soybean, Glycine max, (L.) Merr.; assay: Postemergence herbicidal evaluation (Example 147); conditions: rating scale 0-9, two to three weeks after treatment
Method in brief: as §1

[13] = system: XANST, Cocklebur, Xanthium strumariam; assay: Preemergence herbicidal evaluation (Example 148); conditions: rating scale 0-9, two to four weeks after treatment
Method in brief: (§2)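 Greenhouse cups of separately sown species were treated pre-emergence at about 0.125–0.250 kg/ha. Evaluation was visual, 2–4 weeks after spraying, with averaged values for repeated tests.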

[14] = system: IPOHE, Morningglory, Ivyleaf, Ipomoea hederacea, (L)Jacq.; assay: Preemergence herbicidal evaluation (Example 148); conditions: rating scale 0-9, two to four weeks after treatment
Method in brief: as §2

[15] = system: AMBEL, Ragweed, Common, Ambrosia artemiisifolia, L.; assay: Preemergence herbicidal evaluation (Example 148); conditions: rating scale 0-9, two to four weeks after treatment
Method in brief: as §2

[16] = system: SETVI, Green foxtail, Setaria viridis, (L.)Beau; assay: Preemergence herbicidal evaluation (Example 148); conditions: rating scale 0-9, two to four weeks after treatment
Method in brief: as §2

[17] = system: ZEAMX, Field corn, Zea mays L.; assay: Preemergence herbicidal evaluation (Example 148); conditions: rating scale 0-9, two to four weeks after treatment
Method in brief: as §2

[18] = system: ABUTH, Velvetleaf, Abutilon theophrasti, Medic.; assay: Preemergence herbicidal evaluation (Example 148); conditions: rating scale 0-9, two to four weeks after treatment
Method in brief: as §2

[19] = system: ECHCG, Barnyardgrass, Echinochloa crusgalli, (L.)Beau; assay: Preemergence herbicidal evaluation (Example 148); conditions: rating scale 0-9, two to four weeks after treatment
Method in brief: as §2

[20] = system: DIGSA, Crabgrass, (Hairy) L, Digitaria sanguinalis, (L)Scop; assay: Preemergence herbicidal evaluation (Example 148); conditions: rating scale 0-9, two to four weeks after treatment
Method in brief: as §2

[21] = system: CHEAL, Lambsquarters, Chenopodium album, L. Common; assay: Preemergence herbicidal evaluation (Example 148); conditions: rating scale 0-9, two to four weeks after treatment
Method in brief: as §2

[22] = system: TRZAW, Winter wheat, Tritium Aestivum, L. (Winter); assay: Preemergence herbicidal evaluation (Example 148); conditions: rating scale 0-9, two to four weeks after treatment
Method in brief: as §2

[23] = system: ALOMY, Blackgrass, Alopecurus myosuroides; assay: Preemergence herbicidal evaluation (Example 148); conditions: rating scale 0-9, two to four weeks after treatment
Method in brief: as §2

[24] = system: GLXMA, Soybean, Glycine max, (L.) Merr.; assay: Preemergence herbicidal evaluation (Example 148); conditions: rating scale 0-9, two to four weeks after treatment
Method in brief: as §2

CN(CCC#N)S(=O)(=O)NC(=O)c1cc(-n2c(=O)cc(C(F)(F)F)n(C)c2=O)c(F)cc1Cl [Example 84]
Postemergence herbicidal rating XANST ([1]; rate 0.016 kg/ha): 9.0
Postemergence herbicidal rating XANST ([1]; rate 0.032 kg/ha): 9.0
Postemergence herbicidal rating IPOHE ([2]; rate 0.016 kg/ha): 9.0
Postemergence herbicidal rating IPOHE ([2]; rate 0.032 kg/ha): 9.0
Postemergence herbicidal rating AMBEL ([3]; rate 0.016 kg/ha): 8.0
Postemergence herbicidal rating AMBEL ([3]; rate 0.032 kg/ha): 9.0
Postemergence herbicidal rating SETVI ([4]; rate 0.016 kg/ha): 7.0
Postemergence herbicidal rating SETVI ([4]; rate 0.032 kg/ha): 8.0
Postemergence herbicidal rating ZEAMX ([5]; rate 0.016 kg/ha): 7.0
Postemergence herbicidal rating ZEAMX ([5]; rate 0.032 kg/ha): 8.0
Postemergence herbicidal rating ABUTH ([6]; rate 0.016 kg/ha): 9.0
Postemergence herbicidal rating ABUTH ([6]; rate 0.032 kg/ha): 9.0
Postemergence herbicidal rating ECHCG ([7]; rate 0.016 kg/ha): 8.0
Postemergence herbicidal rating ECHCG ([7]; rate 0.032 kg/ha): 9.0
Postemergence herbicidal rating DIGSA ([8]; rate 0.016 kg/ha): 5.0
Postemergence herbicidal rating DIGSA ([8]; rate 0.032 kg/ha): 6.0
Postemergence herbicidal rating CHEAL ([9]; rate 0.016 kg/ha): 7.0
Postemergence herbicidal rating CHEAL ([9]; rate 0.032 kg/ha): 9.0
Postemergence herbicidal rating TRZAW ([10]; rate 0.016 kg/ha): 5.0
Postemergence herbicidal rating TRZAW ([10]; rate 0.032 kg/ha): 5.5
Postemergence herbicidal rating ALMOY ([11]; rate 0.016 kg/ha): 1.0
Postemergence herbicidal rating ALMOY ([11]; rate 0.032 kg/ha): 2.0
Postemergence herbicidal rating GLXMA ([12]; rate 0.016 kg/ha): 7.0
Postemergence herbicidal rating GLXMA ([12]; rate 0.032 kg/ha): 8.5
Preemergence herbicidal rating XANST ([13]; rate 0.125 kg/ha): 9.0
Preemergence herbicidal rating XANST ([13]; rate 0.25 kg/ha): 9.0
Preemergence herbicidal rating IPOHE ([14]; rate 0.125 kg/ha): 9.0
Preemergence herbicidal rating IPOHE ([14]; rate 0.25 kg/ha): 9.0
Preemergence herbicidal rating AMBEL ([15]; rate 0.125 kg/ha): 9.0
Preemergence herbicidal rating AMBEL ([15]; rate 0.25 kg/ha): 9.0
Preemergence herbicidal rating SETVI ([16]; rate 0.125 kg/ha): 7.0
Preemergence herbicidal rating SETVI ([16]; rate 0.25 kg/ha): 7.0
Preemergence herbicidal rating ZEAMX ([17]; rate 0.125 kg/ha): 0.0
Preemergence herbicidal rating ZEAMX ([17]; rate 0.25 kg/ha): 1.0
Preemergence herbicidal rating ABUTH ([18]; rate 0.125 kg/ha): 9.0
Preemergence herbicidal rating ABUTH ([18]; rate 0.25 kg/ha): 9.0
Preemergence herbicidal rating ECHCG ([19]; rate 0.125 kg/ha): 5.0
Preemergence herbicidal rating ECHCG ([19]; rate 0.25 kg/ha): 6.0
Preemergence herbicidal rating DIGSA ([20]; rate 0.125 kg/ha): 7.0
Preemergence herbicidal rating DIGSA ([20]; rate 0.25 kg/ha): 8.0
Preemergence herbicidal rating CHEAL ([21]; rate 0.125 kg/ha): 9.0
Preemergence herbicidal rating CHEAL ([21]; rate 0.25 kg/ha): 9.0
Preemergence herbicidal rating TRZAW ([22]; rate 0.125 kg/ha): 0.0
Preemergence herbicidal rating TRZAW ([22]; rate 0.25 kg/ha): 2.0
Preemergence herbicidal rating ALMOY ([23]; rate 0.125 kg/ha): 0.0
Preemergence herbicidal rating ALMOY ([23]; rate 0.25 kg/ha): 1.0
Preemergence herbicidal rating GLXMA ([24]; rate 0.125 kg/ha): 2.0
Preemergence herbicidal rating GLXMA ([24]; rate 0.25 kg/ha): 7.0

CCC(C)N(C)S(=O)(=O)NC(=O)c1cc(-n2c(=O)cc(C(F)(F)F)n(C)c2=O)c(F)cc1Cl (stereo not drawn) [Example 69]
Postemergence herbicidal rating XANST ([1]; rate 0.016 kg/ha): 9.0
Postemergence herbicidal rating XANST ([1]; rate 0.032 kg/ha): 9.0
Postemergence herbicidal rating IPOHE ([2]; rate 0.016 kg/ha): 9.0
Postemergence herbicidal rating IPOHE ([2]; rate 0.032 kg/ha): 9.0
Postemergence herbicidal rating AMBEL ([3]; rate 0.016 kg/ha): 9.0
Postemergence herbicidal rating AMBEL ([3]; rate 0.032 kg/ha): 9.0
Postemergence herbicidal rating SETVI ([4]; rate 0.016 kg/ha): 5.0
Postemergence herbicidal rating SETVI ([4]; rate 0.032 kg/ha): 6.0
Postemergence herbicidal rating ZEAMX ([5]; rate 0.016 kg/ha): 7.0
Postemergence herbicidal rating ZEAMX ([5]; rate 0.032 kg/ha): 7.5
Postemergence herbicidal rating ABUTH ([6]; rate 0.016 kg/ha): 9.0
Postemergence herbicidal rating ABUTH ([6]; rate 0.032 kg/ha): 9.0
Postemergence herbicidal rating ECHCG ([7]; rate 0.016 kg/ha): 5.0
Postemergence herbicidal rating ECHCG ([7]; rate 0.032 kg/ha): 7.0
Postemergence herbicidal rating DIGSA ([8]; rate 0.016 kg/ha): 4.0
Postemergence herbicidal rating DIGSA ([8]; rate 0.032 kg/ha): 6.0
Postemergence herbicidal rating CHEAL ([9]; rate 0.016 kg/ha): 8.0
Postemergence herbicidal rating CHEAL ([9]; rate 0.032 kg/ha): 8.0
Postemergence herbicidal rating TRZAW ([10]; rate 0.016 kg/ha): 5.0
Postemergence herbicidal rating TRZAW ([10]; rate 0.032 kg/ha): 6.5
Postemergence herbicidal rating ALMOY ([11]; rate 0.016 kg/ha): 1.0
Postemergence herbicidal rating ALMOY ([11]; rate 0.032 kg/ha): 2.0
Postemergence herbicidal rating GLXMA ([12]; rate 0.016 kg/ha): 8.0
Postemergence herbicidal rating GLXMA ([12]; rate 0.032 kg/ha): 8.0
Preemergence herbicidal rating XANST ([13]; rate 0.125 kg/ha): 3.0
Preemergence herbicidal rating XANST ([13]; rate 0.25 kg/ha): 4.0
Preemergence herbicidal rating IPOHE ([14]; rate 0.125 kg/ha): 9.0
Preemergence herbicidal rating IPOHE ([14]; rate 0.25 kg/ha): 9.0
Preemergence herbicidal rating AMBEL ([15]; rate 0.125 kg/ha): 8.0
Preemergence herbicidal rating AMBEL ([15]; rate 0.25 kg/ha): 9.0
Preemergence herbicidal rating SETVI ([16]; rate 0.125 kg/ha): 0.0
Preemergence herbicidal rating SETVI ([16]; rate 0.25 kg/ha): 1.0
Preemergence herbicidal rating ZEAMX ([17]; rate 0.125 kg/ha): 2.0
Preemergence herbicidal rating ZEAMX ([17]; rate 0.25 kg/ha): 3.0
Preemergence herbicidal rating ABUTH ([18]; rate 0.125 kg/ha): 9.0
Preemergence herbicidal rating ABUTH ([18]; rate 0.25 kg/ha): 9.0
Preemergence herbicidal rating ECHCG ([19]; rate 0.125 kg/ha): 2.0
Preemergence herbicidal rating ECHCG ([19]; rate 0.25 kg/ha): 3.0
Preemergence herbicidal rating DIGSA ([20]; rate 0.125 kg/ha): 3.0
Preemergence herbicidal rating DIGSA ([20]; rate 0.25 kg/ha): 3.0
Preemergence herbicidal rating CHEAL ([21]; rate 0.125 kg/ha): 9.0
Preemergence herbicidal rating CHEAL ([21]; rate 0.25 kg/ha): 9.0
Preemergence herbicidal rating TRZAW ([22]; rate 0.125 kg/ha): 0.0
Preemergence herbicidal rating TRZAW ([22]; rate 0.25 kg/ha): 0.0
Preemergence herbicidal rating ALMOY ([23]; rate 0.125 kg/ha): 0.0
Preemergence herbicidal rating ALMOY ([23]; rate 0.25 kg/ha): 0.0
Preemergence herbicidal rating GLXMA ([24]; rate 0.125 kg/ha): 0.0
Preemergence herbicidal rating GLXMA ([24]; rate 0.25 kg/ha): 3.0
